For 38 compounds, EC50 and Emax results are on record in ChEMBL document CHEMBL4739717, “Methods of treating cartilage disorders through inhibition of clk and dyrk” (2020).

pEC50: −log10 of the molar value.

Assay [1] concerns the target Dual specificity tyrosine-phosphorylation-regulated kinase 1A (Homo sapiens, UniProt Q13627). Nature of the assay: Inhibition of recombinant DYRK1A (unknown origin) using Ser/Thr 18 peptide as substrate incubated for 1 hr in presence of ATP by FRET assay.
A short description of assay [2]: Effect on Wnt signaling pathway in human SW480 cells harbouring TCF/LEF luciferase reporter gene and SP5-Luc reporter gene incubated for 36 to 48 hrs by luminescence assay. The format is cell-based.
Assay [3] is described as follows: Induction of chondrogenesis in human MSC assessed as maximum activity at 300 nM incubated for 6 days by rhodamine B and Nile red staining based imaging analysis relative to control. Format: functional. As to conditions: BMMSC, 144 h, time 6 day.
Assay [4] can be described thus: Inhibition of IL1-beta induced MMP3 expression levels in human chondrocytes assessed as MMP3 levels incubated for 2hrs followed by IL1-beta stimulation and measured after overnight incubation by LANCE assay. Format: functional, cell-based. As to conditions: Chondrocyte. On the technique in general: In TR-FRET formats the signal depends on donor and acceptor labels being close together.

Assay [5] can be described thus: Induction of chondrogenesis in human MSC assessed as maximum activity at 100 nM incubated for 6 days by rhodamine B and Nile red staining based imaging analysis relative to control. The following applies: BMMSC, 144 h, time 6 day. The format is functional.
A short description of assay [6]: Induction of chondrogenesis in human MSC assessed as incubated for 6 days by rhodamine B and Nile red staining based imaging analysis. The format is functional. As to conditions: bmmsc.

Turning to `O=C(Nc1cncc(-c2cnc3[nH]nc(-c4cc5c(N6CCCCC6)nccc5[nH]4)c3c2)c1)C1CC1`, the pEC50 (in general, −log10 of the EC50, conventionally taken in molar units) in assay [1] is 7.51; in assay [2], 5.41. For the same compound, the Emax – broadly, the greatest response seen or fitted, relative to the assay's reference – at 0.3 µM in assay [3] was determined as 42.5%.
With `CN1CCN(c2cncc3[nH]c(-c4n[nH]c5ccc(-c6cncc(NC(=O)CC(C)(C)C)c6)cc45)cc23)CC1`, the pEC50 was 7.92 in assay [1] and 5.46 in assay [2]. In addition, in assay [3], the Emax at 0.3 µM worked out at 30.8%.
Take `CC(C)OCCCNC(=O)c1n[nH]c2ccc(-c3cccnc3)cc12`: the negative logarithm of the EC50 (pEC50) is 7.97 in assay [4] and 6.33 in assay [2]. Further, in assay [5], the Emax at 0.1 µM was found to be 92.5%.
On to `O=C1CCc2cccc(c2)-c2cncc3[nH]c(nc23)-c2n[nH]c3ccc(cc23)-c2cncc(c2)N1`, for which the values for the pEC50 in assay [6], in assay [4] and in assay [2] were 7.30, 5.52 and 7.29, respectively. In addition, in assay [5], the Emax at 0.1 µM is 225%.
As to `CN(C)CCNc1cc(F)cc(-c2cccc3[nH]c(-c4n[nH]c5cnc(-c6cncc(N)c6)cc45)cc23)c1`, the pEC50 in assay [1] is 7.64; in assay [6], 7.00; in assay [2] it was 6.39. Further, the Emax at 0.1 µM in assay [5] turned out to be 180%.
With `CN(C)CCOc1cncc(-c2ccc3[nH]nc(-c4nc5c(-c6cccs6)cccc5[nH]4)c3n2)c1`, the results for the pEC50 in assay [1], in assay [6] and in assay [2] were 7.39, 8.00 and 5.51, respectively. Besides, the Emax at 0.1 µM in assay [5] came out at 142%.
Take `Cc1ccc(-c2cncc3[nH]c(-c4n[nH]c5cnc(-c6cncc(N)c6)cc45)nc23)s1`: the negative-log EC50 (pEC50) in assay [1] was 7.36; in assay [6], 7.00; in assay [2], 7.96. Moreover, the Emax at 0.1 µM in assay [5] came out at 162%.
As to `CC(C)CC(=O)Nc1cncc(-c2cnc3[nH]nc(-c4cc5c(-c6ccncc6)cccc5[nH]4)c3c2)c1`, the pEC50 in assay [1] is 7.64; in assay [6], 7.52; in assay [2], 6.15. In assay [5], the maximum response (Emax) at 0.1 µM was found to be 71.4%.
On the same counts, the results for `Cc1cn(-c2ccnc3[nH]c(-c4n[nH]c5ccc(-c6cncc(NC(=O)C(C)(C)C)c6)nc45)nc23)cn1` are 7.66, 8.00, under 5.00 and 70.2%.
As for `CN(C)c1cncc(-c2ccc3[nH]nc(-c4nc5c(-c6cccc(F)c6)cncc5[nH]4)c3n2)c1`, the pEC50 was 7.60 in assay [1], 8.00 in assay [6] and 6.20 in assay [2]. Further, in assay [5], the Emax at 0.1 µM was 154%.
The like results for `CC(C)Nc1cncc(-c2ccc3[nH]nc(-c4nc5c(-c6cccnc6)ccnc5[nH]4)c3n2)c1` were, in that order, 7.85, 8.00, 5.76 and 114%.
On the same counts, the results for `O=C(Nc1cncc(-c2ccc3[nH]nc(-c4nc5c(-c6ccc(Cl)s6)ccnc5[nH]4)c3n2)c1)C1CCC1` are 7.55, 8.00, 6.45 and 102%.
On the same counts, the results for `O=C(Nc1cncc(-c2cc3c(-c4cc5c(-c6cccnc6)cccc5[nH]4)n[nH]c3cn2)c1)C1CC1` are 7.47, 7.00, 6.48 and 308%.
In the case of `O=C(Nc1cncc(-c2cnc3[nH]nc(-c4cc5c(-c6cccs6)nccc5[nH]4)c3c2)c1)C1CCC1`, the results for the pEC50 in assay [1], in assay [6] and in assay [2] were 7.34, 7.00 and 6.32, respectively. In addition, the Emax at 0.1 µM in assay [5] came to 82.2%.
The like results for `Cc1ccc(-c2cncc3[nH]c(-c4n[nH]c5ccc(-c6cncc(N)c6)nc45)nc23)s1` were, in that order, 8.70, 7.52, 7.39 and 79.4%.
In the case of `c1cncc(-c2cc3c(-c4nc5ccccc5[nH]4)n[nH]c3cn2)c1`, the pEC50 is 7.14 in assay [1], 7.52 in assay [6] and 7.70 in assay [2]. In addition, the Emax at 0.1 µM in assay [5] came out at 80.5%.
The like results for `Fc1ccccc1-c1cncc2[nH]c(-c3n[nH]c4ncc(-c5cn[nH]c5)cc34)cc12` were, in that order, 7.70, 7.00, 6.43 and 51.1%.
On to `CCCC(=O)Nc1cncc(-c2cnc3[nH]nc(-c4nc5c(-c6ccoc6)cccc5[nH]4)c3c2)c1`, for which the values for the negative logarithm of the EC50 (pEC50) in assay [1], in assay [6] and in assay [2] were 7.60, 7.00 and 7.20, respectively. Also, the Emax at 0.1 µM in assay [5] came out at 111%.
For the compound `Cn1cc(-c2ccc3[nH]nc(-c4cc5c(-c6cccnc6)cncc5[nH]4)c3c2)cn1`, the results for the pEC50 in assay [1], in assay [6] and in assay [2] were 7.28, 7.52 and 6.60, respectively. Moreover, the Emax at 0.1 µM in assay [5] is 65.2%.
Take `O=C1COc2cccc(c2)-c2cncc3[nH]c(nc23)-c2n[nH]c3ccc(cc23)-c2cncc(c2)N1`: the values for the pEC50 in assay [6], in assay [4] and in assay [2] were 7.00, 7.43 and 7.06, respectively. For the same compound, in assay [5], the Emax at 0.1 µM amounted to 185%.
`c1cncc(-c2ccc3[nH]nc(-c4cc5c(-c6cccnc6)cncc5[nH]4)c3c2)c1`: the negative-log EC50 (pEC50) in assay [1] is 9.00; in assay [6], 7.00; in assay [4], 8.96; in assay [2], 6.51. In addition, the Emax at 0.1 µM in assay [5] came to 58.2%.
In the case of `CC(C)CC(=O)Nc1cncc(-c2ccc3[nH]nc(-c4nc5c(-c6ccc(F)cc6)cncc5[nH]4)c3c2)c1`, the pEC50 is 7.22 in assay [1], 7.00 in assay [6] and 7.24 in assay [2]. Moreover, the Emax at 0.1 µM in assay [5] amounted to 125%.
For `CC(C)C(=O)Nc1cncc(-c2cc3c(-c4cc5cnccc5[nH]4)n[nH]c3cn2)c1`, the pEC50 was 9.00 in assay [1], 7.52 in assay [6] and 6.40 in assay [2]. Besides, the Emax at 0.1 µM in assay [5] was determined as 61.2%.
On the same counts, the results for `Cn1cc(-c2cc3c(-c4nc5c(-c6cccc(F)c6)cncc5[nH]4)n[nH]c3cn2)cn1` are 7.82, 7.00, 7.15 and 71%.
As for `CN1CCN(c2cncc3[nH]c(-c4n[nH]c5ccc(-c6cncc(NC(=O)CC7CCNCC7)c6)cc45)cc23)CC1`, the values for the pEC50 in assay [1], in assay [6] and in assay [2] were 7.82, 7.00 and under 5.00, respectively. The Emax at 0.1 µM in assay [5] worked out at 289%.
The like results for `CCCCC(=O)Nc1cncc(-c2cnc3[nH]nc(-c4cc5c(-c6ccncc6)cncc5[nH]4)c3c2)c1` were, in that order, 7.77, 8.00, under 5.00 and 70.4%.
`CCNCc1cncc(-c2cnc3[nH]nc(-c4cc5c(-c6cc(F)cc(CNS(C)(=O)=O)c6)cncc5[nH]4)c3c2)c1`: the pEC50 in assay [1] was 8.22; in assay [4], 5.52; in assay [2], under 5.00. Besides, the Emax at 0.1 µM in assay [5] was determined as 42.8%.
As to `Cc1cn(-c2ccnc3[nH]c(-c4n[nH]c5ccc(-c6cncc(NC(=O)C7CCC7)c6)nc45)nc23)cn1`, the negative logarithm of the EC50 (pEC50) in assay [1] was 7.70; in assay [6], 6.52; in assay [2], under 5.00. Also, the Emax at 0.1 µM in assay [5] came to 69.1%.
For the compound `CC(C)CC(=O)Nc1cncc(-c2ccc3[nH]nc(-c4nc5c(-c6cc(F)cc(CNS(C)(=O)=O)c6)cncc5[nH]4)c3c2)c1`, the pEC50 was 7.80 in assay [1], 7.00 in assay [6] and 8.30 in assay [2]. The Emax at 0.1 µM in assay [5] is 118%.
On the same counts, the results for `Nc1cncc(-c2cc3c(-c4cc5c(N6CCCCC6)cncc5[nH]4)n[nH]c3cn2)c1` are 8.22, 7.52, 5.53 and 93.5%.
The like results for `CCC(=O)Nc1cncc(-c2cnc3[nH]nc(-c4nc5c(-c6ccsc6)cccc5[nH]4)c3c2)c1` were, in that order, 7.12, 7.00, 8.00 and 167%.
The like results for `CCCCC(=O)Nc1cncc(-c2ccc3[nH]nc(-c4cc5c(N6CCCCC6)cccc5[nH]4)c3n2)c1` were, in that order, 7.40, 7.00, 6.24 and 68.6%.
With `CC(C)(C)CC(=O)Nc1cncc(-c2cc3c(-c4cc5cnccc5[nH]4)n[nH]c3cn2)c1`, the pEC50 was 8.52 in assay [1], 8.00 in assay [6] and 5.72 in assay [2]. The Emax at 0.1 µM in assay [5] worked out at 58.8%.
Take `Cn1cc(-c2cc3c(-c4nc5c(-c6cccc(F)c6)nccc5[nH]4)n[nH]c3cn2)cn1`: the values for the pEC50 in assay [1], in assay [6] and in assay [2] were 7.59, 7.00 and 8.00, respectively. Besides, the Emax at 0.1 µM in assay [5] was found to be 110%.
On the same counts, the results for `Cc1ccc(-c2cncc3[nH]c(-c4n[nH]c5cnc(-c6cncc(NC(=O)C7CCC7)c6)cc45)nc23)s1` are 7.92, 7.00, 8.00 and 231%.
The like results for `CCC(=O)Nc1cncc(-c2ccc3[nH]nc(-c4cc5c(-c6cccc(F)c6)ccnc5[nH]4)c3c2)c1` were, in that order, 7.48, 7.00, 7.88 and 167%.
The like results for `CC(C)Nc1cncc(-c2cnc3[nH]nc(-c4nc5c(-c6cccc(F)c6)cncc5[nH]4)c3c2)c1` were, in that order, 7.70, 7.52, 8.92 and 504%.
As to `Nc1cncc(-c2ccc3[nH]nc(-c4nc5c(-c6ccccc6F)ccnc5[nH]4)c3n2)c1`, the pEC50 in assay [1] is 7.82; in assay [6], 8.00; in assay [2] it was under 5.00. Moreover, in assay [5], the Emax at 0.1 µM is 127%.
